Assay results reported in patent US7402575B2, “Methods of treating inflammation” (priority 2003, dated 2008).
“Also recorded” adds a separate entry of the source.

Experiments:
Assay type in all cases: cell-based, dog
[1] = tested on: right ventricular trabecular preparation; assay: Effect of the substance itself on isometric tension in right ventricular trabecular preparation
Method: Aliquots of the 10-30 KD plasma fraction (0.05 to 1 ml) were then added to a right ventricular (RV) trabecular preparation to test for the presence of FCS activity. The RV preparation has previously been described (6,7). Briefly, mongrel dogs (3 to 10 kg) were anesthetized with pentobarbital, and their hearts were removed. Three to four thin trabeculae (<1 mm diameter) were obtained from the right ventricle and were suspended in a vertical constant temperature bath (5 ml) that contained Krebs Henseleit (KH) solution. The muscle was stimulated electrically at 0.5 Hz. Aliquots of plasma fractions (from 0.05 to 1 ml) were added to respective organ baths at 5 minute intervals. The changes observed in the pre and septic plasma fractions were expressed relative to tensions found at baseline (i.e. prior to the addition of the sample). An increase in the depressant activity in the septic plasma fraction relative to that found in the presepsis sample was indicative of an increase in FCS.
The effect of purified Lzm-S on myocardial depression was then studied in the ventricular trabecular preparation. In initial experiments, the objective was to compare Lzm-S prepared from septic and nonseptic spleens to see if there was any difference between the two preparations. Although no differences were apparent by SDS-PAGE gel, different isoforms of the enzyme could have developed in sepsis thereby increasing its potential to cause myocardial depression. Aliquots of the septic and nonseptic preparations were added (at 5 minute intervals) to respective organ baths, and the changes in isometric tension were then compared between Lzm-S obtained from spleens of septic and nonseptic animals.
The right ventricular (RV) preparation used in this study has also been described (49,6). Briefly, mongrel dogs (3 to 10 kg) were anesthetized with pentobarbital. The hearts were removed, flushed with 50 ml of Krebs-Henseleit solution (KH), and placed in ice-cold KH bubbled with a mixture of 95% O2 and 5% CO2. […]
After baseline tension was determined, either the lectin or placebo was placed into respective organ baths. […]

lysozyme c (Lzm-S) [2] = molecular target: T1, lysozyme c (Lzm-S) (Canis lupus familiaris, UniProt P81709); assay: Inhibition of Lzm-S's myocardial depressant activity (isometric tension) in right ventricular trabecular preparation; details: Lzm-S 10^−7M first, then inhibitor 10^−3M at 15 min intervals (Example 4)
T1 construct: Lzm-S was purified in a manner described by Grobler et al (14); from tissue
T1 sequence (P81709 1-130): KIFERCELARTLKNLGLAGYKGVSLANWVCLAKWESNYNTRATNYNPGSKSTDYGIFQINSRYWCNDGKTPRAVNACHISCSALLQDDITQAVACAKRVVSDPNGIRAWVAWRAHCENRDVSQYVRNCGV

lysozyme c (Lzm-S) [3] = molecular target: T1, lysozyme c (Lzm-S); assay: as above; details: for Attenuation of the reduction in isometric tension, inhibitor added after Lzm-S: Lzm-S 10^−7M added before the inhibitor; for Isometric tension following pre-treatment with sugar: Lzm-S 10^−7M, sugar 10^−3M added before Lzm-S; for Inhibition of Lzm-S's depressant effect on isometric tension: inhibitor 10^−3M added before Lzm-S, paced 0.5 Hz
Method: In subsequent experiments, the objective was to determine whether pretreatment of Lzm-S with the proteolytic enzyme proteinase-K reduced the extent to which myocardial depression developed in the in vitro preparation (7). Proteinase-K (attached to beaded agarose; Sigma Chemical, St Louis, Mo.) was added to the pure Lzm-S preparation. The effects of proteinase-K treated and nontreated Lzm-S on isometric tension were compared between the samples. Since proteinase-K is a non-specific proteolytic enzyme, a specific competitive inhibitor of lysozyme, TAC (chitotriose) was subsequently examined to determine whether it prevented the depression in isometric tension observed in the in vitro preparation (16,17).
In one set of experiments, it was determined whether TAC prevented the reduction in tension observed with Lzm-S. A dose of 10^−3M TAC (based on preliminary experiments) was added to the organ bath before the addition of Lzm-S. Lzm-S was then added to bring the final concentrations to 10^−10M, 10^−9M, 10^−8M, and 10^−7M in sequential steps. In a related set of experiments, the effect of TAC was studied under a similar protocol in which the ventricular trabecular preparation was paced at 1 Hz instead of 0.5 Hz. The objective was to determine whether the higher frequency altered the inhibitory response of TAC. In a third set of experiments, the sequence of adding TAC and Lzm-S was reversed. Lzm-S (10^−7M) was initially added to the preparation, after which TAC at bath concentrations of 10^−6M, 10^−5M, 10^−4M, 10^−3M were sequentially added. The objective was to determine whether TAC could attenuate the effect of Lzm-S on reducing the isometric response after an initial depression in isometric tension had already been attained.
The right ventricular (RV) preparation used in this study has also been described (49,6). Briefly, mongrel dogs (3 to 10 kg) were anesthetized with pentobarbital. The hearts were removed, flushed with 50 ml of Krebs-Henseleit solution (KH), and placed in ice-cold KH bubbled with a mixture of 95% O2 and 5% CO2. Three to four thin trabeculae (<1 mm diameter) were obtained from the right ventricle and were tied at each end with 6-O silk thread. Each thin muscle was suspended in a vertical constant temperature bath (5 ml) that contained KH (in mM: NaCl, 118; KCl, 4.7; CaCl2 2.5; MgSO4, 1.2; KH2PO4, 1.4; NaHCO3, 25; and dextrose, 11). The muscle was stimulated electrically via punctate platinum bipolar electrodes with rectangular pulses (1 ms duration) at an intensity of 50% above threshold delivered at intervals of 2,000 ms. The trabeculae were stretched to optimal length.
Inhibitory activities of N-acetylglucosamine (NAG), N,N′ diacetylglucosamine (NAG-NAG: N,N′ diacetylchitobiose), and N,N′,N″,N′″ tetraacetylglucosamine (NAG-NAG-NAG-NAG: N,N′,N″,N′″-tetraacetylchitotetraose) were examined (Sigma Corp Canada, Oakville Ontario). These are structurally similar to TAC, but have a different number of NAG units (17). Two somewhat related sugars were also examined to see if there was potential for blocking the activity of lysozyme. These included D-cellotriose and N-aceytllactosamine. D-cellotriose includes three glucose residues linked by beta (1-4) glycosidic linkages, while N acetyllactosamine includes N-acetylglucosamine and galactose residues linked by beta (1-4) glycosidic linkages (12).
After baseline tension was determined, either the sugar or placebo was placed into respective organ baths. The concentration of the sugar used was 10^−3M based on the inventors' previous experiments with TAC 49), while the concentrations of lysozyme were 10^−9, 10^−8, and 10^−7M, respectively. Measurements were obtained at 5 minute intervals. The changes in isometric tension measured from baseline were compared between the treated and placebo baths. […]

CC(=O)N[C@H]1[C@H](O[C@H]2[C@H](O)[C@@H](NC(C)=O)C(O)O[C@@H]2CO)O[C@H](CO)[C@@H](O)[C@@H]1O (stereo partly drawn) [chitobiose, N,N′ diacetylglucosamine]
Effect of the substance by itself on isometric tension [1]: modest depressant effect | Isometric tension, inhibitor added after myocardial depression had already been produced by lysozyme (lysozyme c (Lzm-S) [2]): 65 % of baseline | Attenuation of the reduction in isometric tension, inhibitor added after Lzm-S (lysozyme c (Lzm-S) [3]): attenuated the decrease in isometric tension as compared to when no intervention was instituted | Isometric tension following pre-treatment with sugar (lysozyme c (Lzm-S) [3]): approximately 90 % of baseline | Inhibition of Lzm-S's depressant effect on isometric tension (lysozyme c (Lzm-S) [3]; listed as N,N′ diacetylchitobiose): completely blocked lysozyme's depressant activity | Inhibition of Lzm-S's depressant effect on isometric tension (lysozyme c (Lzm-S) [3]; listed as diacetylchitobiose): inhibited the depressant effect of Lzm-S

CC(=O)N[C@H]1[C@H](O[C@H]2[C@H](O)[C@@H](NC(C)=O)C(O)O[C@@H]2CO)O[C@H](CO)[C@@H](O[C@@H]2O[C@H](CO)[C@@H](O)[C@H](O)[C@H]2NC(C)=O)[C@@H]1O (stereo partly drawn) [TAC, N,N′,N″ triacetylglucosamine]
Effect of the substance by itself on isometric tension [1]: no effect on isometric tension; also recorded: modest depressant effect | Isometric tension, inhibitor added after myocardial depression had already been produced by lysozyme (lysozyme c (Lzm-S) [2]): 55 % of baseline | Attenuation of the reduction in isometric tension, inhibitor added after Lzm-S (lysozyme c (Lzm-S) [3]): treatment attenuated the reduction in isometric tension; also recorded: attenuated the decrease in isometric tension as compared to when no intervention was instituted | Isometric tension following pre-treatment with sugar (lysozyme c (Lzm-S) [3]): approximately 77 % of baseline | Attenuation of Lzm-S's depressant activity at higher pacing rate (lysozyme c (Lzm-S) [3]; TAC 10^−3M before Lzm-S, paced 1 Hz): still observed at this higher heart rate | Inhibition of Lzm-S's depressant effect on isometric tension (lysozyme c (Lzm-S) [3]): significantly less than that found in the nontreated group
